Test results taken from PMC3548330 (Bioconjugate chemistry, 2012).
Converted amounts (≈) assume the structure as drawn. Where two headings read alike, the source gives them in different places.

Assays:
Ag85s = settings: screening of the NIH Clinical Collection; cited from earlier work
Ag85C = Ag85C (Mycobacterium tuberculosis, UniProt P9WQN9); assay: 4-methylumbelliferyl butyrate; type: biochemical
Mycobacterium aurum = settings: surrogate for Mycobacterium tuberculosis; cited from earlier work
M. smegmatis = settings: cited from earlier work
synthesis of TDM = settings: cited from earlier work
[1] = test system: M. tuberculosis inside macrophages; settings: 100 µM concentration; cited from earlier work
M. tuberculosis = settings: cited from earlier work
[2] = 600 nM Ag85C, 10 mM trehalose, 100 µM 4-MUB, 37 °C, inhibitor 20-320 µM

Sequence of Ag85C (P9WQN9 46-340): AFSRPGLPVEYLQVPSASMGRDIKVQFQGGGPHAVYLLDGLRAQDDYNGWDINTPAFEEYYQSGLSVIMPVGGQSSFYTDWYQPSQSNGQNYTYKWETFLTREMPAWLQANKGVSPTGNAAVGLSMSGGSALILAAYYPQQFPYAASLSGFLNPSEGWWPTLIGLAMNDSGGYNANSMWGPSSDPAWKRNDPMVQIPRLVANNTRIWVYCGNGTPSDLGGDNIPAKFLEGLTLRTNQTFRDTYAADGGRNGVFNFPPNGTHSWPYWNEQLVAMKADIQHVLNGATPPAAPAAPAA

In the case of `O=c1c2ccccc2[se]n1-c1ccccc1` [ebselen], the “inhibition of Ag85s” value (Ag85s) is listed as “nM inhibitor”.
Work on `CCOC(=O)c1c(NC(=O)CSCC2OC(OC)C(O)C2O)sc2c1CCCC2` [Compound 13a, Ethyl 2-(methyl 5-thio-α-D-arabinofuranoside-5-S-yl)acetamido-4,5,6,7-tetrahydrobenzo[b]thiophene-3-carboxylate] yielded a Ki (Ag85C; [2]) of 18.2 µM.
In the case of `[N-]=[N+]=NC[C@H]1O[C@H](O[C@H]2O[C@H](CO)[C@@H](O)[C@H](O)[C@H]2O)[C@H](O)[C@@H](O)[C@@H]1O` [6-azido-6-deoxytrehalose], the “growth inhibition of Mycobacterium aurum” value (Mycobacterium aurum) is listed as “completely inhibit the growth”.
Compound `COC1O[C@H](CSCCn2c(=O)[nH]c3sc4c(c3c2=O)CCCC4)[C@@H](O)[C@@H]1O` (stereo partly drawn) [Compound 14, Methyl 5-S-[2-(2,4-dioxo-1,4,5,6,7,8-hexahydro[1]benzothieno[2,3-d]-pyrimidin-3(2H)-yl)ethyl]-5-thioarabinofuranoside] has a Ki (Ag85C) of 47.1 µM.
In the case of `CCOC(=O)c1c(NC(=O)C(CC)SC[C@H]2O[C@H](OC)[C@@H](O)[C@@H]2O)sc2c1CCCC2` (stereo partly drawn) [Compound 13c, Ethyl 2-(methyl 5-thio-α-D-arabinofuranoside-5-S-yl)butamido-4,5,6,7-tetrahydrobenzo[b]thiophene-3-carboxylate], the Ki (Ag85C; [2]) is reported as 71 µM.
In the case of `N#Cc1c(N)sc2c1CCCC2` [Compound 1b, 2-Amino-4,5,6,7-tetrahydrobenzo[b]thiophene-3-carbonitrile], the MIC (M. smegmatis) is given as 50 to 100 µg/mL.
In the case of `CCCC1CCc2c(sc(N)c2C#N)C1` (centres unmarked) [Compound I3-AG85, 2-amino-6-propyl-4,5,6,7-tetrahydro-1-benzothiophene-3-carbonitrile], the “inhibition of the synthesis of TDM” value (synthesis of TDM) is listed as “inhibit the synthesis of TDM”, the “survival of M. tuberculosis inside macrophages” value [1] is listed as “reduced survival” and the “concentration inhibiting growth of MDR and XDR strains” value (M. tuberculosis; 7 MDR and 3 XDR M. tuberculosis strains) is listed as no more than 200 µM. For the same compound, the MIC (M. tuberculosis; M. tuberculosis) was 100 µg/mL (≈ 454 µM).
`CO[C@H]1O[C@H](CSCC(=O)Nc2sc3c(c2C#N)CCCC3)[C@@H](O)[C@@H]1O` [Compound 13b, N-(3-cyano-4,5,6,7-tetrahydrobenzo[b]thiophen-2-yl)-2-(methyl 5-thio-α-D-arabinofuranoside-5-S-yl)acetamide] gave a Ki (Ag85C; [2]) of 34.8 µM.
